The values that follow come from patent US20160008367A1, “Combination Comprising a Cyclin Dependent Kinase 4 or Cyclin Dependent Kinase (CDK4/6) Inhibitor for Treating Cancer” (Novartis AG, priority 2010, published 2016).

For test [1], the system named is PANC-1 pancreatic carcinomas. Nature of the test: PANC-1 pancreatic carcinoma xenograft model. The class given is in vivo, nude mice. The note with it: PANC-1 xenograft, po x 21 days. On the procedure: The PANC-1 pancreatic carcinomas used for implantation were maintained by serial engraftment in nude mice. […] Tumor size, in mm3, was calculated from: Tumor Volume=(w2×l)/2 where w=width and l=length, in mm, of the tumor. […] Group 1 mice received the Compound A1 and Compound B1 vehicles, and served as controls for all analyses. […] Each animal was euthanized when tumor volume reached 1200 mm3, or on the last day of the study ([…]). For each animal whose tumor reached the endpoint volume, the time to endpoint (TTE) was calculated by the following equation: TTE=(log10(endpoint volume)-b)/m Where TTE is expressed in days, endpoint volume is in mm3, b is the intercept, and m is the slope of the line obtained by linear regression of a log-transformed tumor growth data set. […] The calculated TTE is usually less than the day on which an animal is euthanized for tumor size. […] Treatment efficacy was determined from tumor growth delay (TGD), which is defined as the increase in the median TTE for a treatment group compared with the control group: TGD=T-C, expressed in days, or as a percentage of the median TTE of the control group: % TGD=[(T-C)/C]×100, where: T=median TTE for a treatment group, C=median TTE for the designated control group.

The subject of test [2] is Jeko-1 mantle cell lymphoma cells. Nature of the test: Cell Titer-Glo cell viability assay, single agents and combinations. The class given is cell-based. The note with it: 72 hrs. On the procedure: The Cell Titer-Glo Luminscent Cell Viability Assay (Promega#G7572) generates a luminescent signal that is proportional to the number of metabolically active cells present in a reaction, based on the quantitation of ATP. Cell Titer-Glo Reagent was prepared by thawing a vial of Cell Titer-Glo Buffer in a 37° C. water bath. The entire bottle of buffer was then added to the bottle of lyophilized Cell Titer-Glo Substrate provided in the kit. Lyophilized substrate was allowed to dissolve; the solution was then mixed by inversion and was ready for use. Jeko-1 cells were diluted to a density of 200,000 cells/mL and cultured in T250 flask. Before treatment (time 0), 3×100 micro liter aliquots were removed and placed into a black 96 well plate with clear bottom (Costar#3904). 50 uL of CTG reagent was added to each well. The plate was placed on an Orbital Shaker, protected from light and incubated using setting 4 for 30 minutes at RT. The plate was then read using the Envision Luminometer, and results exported. The cells remaining in the T250 flasks were either left untreated or treated with single agents or in combinations. […] Results were exported and analyzed using Microsoft Excel. The percentage of viable cells as compared to control growth was calculated using following equation: […]
A is the CTG read under treatment condition
B is the CTG read for Time 0 cells
C is CTG read for 72 hr untreated cells […]
A general note: In ATP-based viability assays light output follows the ATP content of the culture.

The subject of test [3] is Jeko-1 xenograft. Briefly: Jeko-1 mantle cell lymphoma xenograft model. The class given is in vivo. The note with it: 35 day treatment period, single agents. The source says: A Jeko-1 xenograft model was used to measure anti-tumor activity in a 35 day treatment period of Compound A1, Compound B1, and the combination of Compounds A1 and B1. Significant anti-tumor activity was observed.

In the case of `COC1CC2CC[C@@H](C)C(O)(O2)C(=O)C(=O)N2CCCCC2C(=O)O[C@H](C(C)C[C@@H]2CCC(OCCO)[C@H](OC)C2)CC(=O)C(C)/C=C(\C)C(O)C(OC)C(=O)[C@H](C)CC(C)/C=C/C=C/C=C/1C` (stereo in doubt) [Compound B1, (1R,9S,12S,15R,16E,18R,19R,21R,23S,24E,26E,28E,30S,32S,35R)-1,18-dihydroxy-12-{(1R)-2-[(1S,3R,4R)-4-(2-hydroxyethoxy)-3-methoxycyclohexyl]-1-methylethyl}-19,30-dimethoxy-15,17,21,23,29,35-hexamethyl-11,36-dioxa-4-aza-tricyclo[30.3.1.04,9]hexatriaconta-16,24,26,28-tetraene-2,3,10,14,20-pentaone], the anti-tumor activity result is given as “neither Compound A1 nor Compound B1 had significant anti-tumor activity” in test [1] (Compound B1 10 mg/kg qd) and “had anti-tumor activity” in test [3]. Further, the “% cell growth compared to the vehicle control” value in test [2] (mTOR inhibitor alone at 1, 2.5 and 5 nM (all three concentrations)) is “approximately 30%”.
In the case of `CN(C)C(=O)c1cc2cnc(Nc3ccc(N4CCNCC4)cn3)nc2n1C1CCCC1` [Compound A1, 7-Cyclopentyl-2-(5-piperazin-1-yl-pyridin-2-ylamino)-7H-pyrrolo[2,3-d]pyrimidine-6-carboxylic acid dimethylamide], the anti-tumor activity result is reported as “neither Compound A1 nor Compound B1 had significant anti-tumor activity” in test [1] (Compound A1 250 mg/kg qd) and “had anti-tumor activity” in test [3]. For the same molecule, the “% cell growth compared to the vehicle control” value in test [2] (100 nM CDK4/6 inhibitor alone) was determined as 70%.
